This note sets out measurements from article PMC11059095.

The nature of the series: Brønsted acid catalysed 8-endo cationic carbocyclisation of biphenyl-embedded enynes (C-C bond between tertiary carbocation from protonated alkene and distal alkyne carbon); TfOH 10 mol%, vinyl cation trapped by H2O (1.1 equiv) or internal nucleophile. The settings on record: the molecule shown is the open-chain precursor, 8-membered ring, 1,2-dichloroethane, 50.0 mM, 60.0 °C.

The structures appear in SMILES notation.

For `CC#Cc1ccccc1-c1ccccc1C=C(C)C` [1b -> 3b], the ring closure, isolated yield (2.0 h) turned out to be 99%.
Still for that read-out and setting: the value for `CC#Cc1ccccc1-c1cc(Cl)ccc1C=C(C)C` [1p -> 3p] was 99%.
On the same count and under the same terms, the value for `CC#Cc1cc(Cl)ccc1-c1ccccc1C=C(C)C` [1q -> 3q] was 95%; that for `CC#Cc1ccccc1-c1ccc(OC)cc1C=C(C)C` [1r -> 3r] was 82%.
Regarding `CC#Cc1cc(OC)ccc1-c1ccccc1C=C(C)C` [1s -> 3s], the ring closure, isolated yield (2.0 h) turned out to be 70%.
As to `CC#Cc1cc(OC)c(C)c(OC)c1-c1cc(Cl)ccc1C=C(C)C` [1t -> 3t], the ring closure, isolated yield (2.0 h) is 45%.
With `CC(C)=Cc1ccccc1-c1ccccc1C#CCCO` [1u -> 6u], the ring closure, isolated yield amounted to 31%.
Still for that read-out and setting: the value for `COc1cccc(CC#Cc2ccccc2-c2ccccc2C=C(C)C)c1` [1v -> 6v] was 29%.
